# From patent US11571423B2, “Small molecule modulators of human sting” (Curadev Pharma Limited, priority 2017, dated 2023)
# Molecular target: hSTING(R232) (Homo sapiens, UniProt Q86WV6, H232R)
# Test: Luciferase reporter assay in HEK293T-hSTING-Luciferase cells, R232 (wild type) human STING
# Type: cell-based
# Details: 20 hr stimulation, read-out: R232 human activity (EC50 range)
# Summary of the method: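 After 20 hr compound stimulation of 5×10^5 cells, secreted luciferase in the supernatant was measured by luminescence; values are fold-induction over baseline and EC50. The line is a clonal HEK293T stably carrying a STING plasmid (pUNO-1) and a luciferase reporter under five tandem ISREs fused to an ISG54 promoter.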
# Sequence of hSTING(R232) (Q86WV6 whole entry H232R): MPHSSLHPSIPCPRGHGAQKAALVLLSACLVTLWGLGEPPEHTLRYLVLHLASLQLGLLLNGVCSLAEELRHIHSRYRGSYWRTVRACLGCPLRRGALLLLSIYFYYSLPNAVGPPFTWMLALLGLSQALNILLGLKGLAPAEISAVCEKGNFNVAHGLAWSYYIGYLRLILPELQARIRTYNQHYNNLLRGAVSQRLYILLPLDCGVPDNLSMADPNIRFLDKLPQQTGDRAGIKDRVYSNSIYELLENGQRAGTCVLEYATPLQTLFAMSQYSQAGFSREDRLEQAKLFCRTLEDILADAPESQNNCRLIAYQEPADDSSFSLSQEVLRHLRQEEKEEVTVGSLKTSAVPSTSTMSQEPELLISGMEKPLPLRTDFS
row,EC50 [µM],Compound
1,< 1,"CC1c2ccc(C(=O)NCc3c(F)cc(F)cc3F)cc2N(Cc2ccccc2)C(=O)N1C (centres unmarked) [Example 190, 1-benzyl-3,4-dimethyl-2-oxo-N-(2,4,6-trifluorobenzyl)-1,2,3,4-tetrahydroquinazoline-7-carboxamide]"
2,< 1,"CC1c2ccc(C(=O)NCc3c(F)cc(F)cc3F)cc2N(Cc2ccccc2)C(=O)N1C (centres unmarked) [Example 191, 1-benzyl-3,4-dimethyl-2-oxo-N-(2,4,6-trifluorobenzyl)-1,2,3,4-tetrahydroquinazoline-7-carboxamide]"
3,< 1,"CC1c2ccc(C(=O)NCc3c(F)cc(F)cc3F)cc2N(Cc2ccccc2)C(=O)N1C (centres unmarked) [Example 192, 1-benzyl-3,4-dimethyl-2-oxo-N-(2,4,6-trifluorobenzyl)-1,2,3,4-tetrahydroquinazoline-7-carboxamide]"
4,< 1,"CC1c2ccc(C(=O)NCc3c(F)cc(F)cc3F)cc2N(Cc2ccccc2F)C(=O)N1C (centres unmarked) [Example 194, 1-(2-fluorobenzyl)-3,4-dimethyl-2-oxo-N-(2,4,6-trifluorobenzyl)-1,2,3,4-tetrahydroquinazoline-7-carboxamide]"
5,< 1,"CC1c2ccc(C(=O)NCc3c(F)cc(F)cc3F)cc2N(Cc2c(F)cccc2F)C(=O)N1C (centres unmarked) [Example 195, 1-(2,6-difluorobenzyl)-3,4-dimethyl-2-oxo-N-(2,4,6-trifluorobenzyl)-1,2,3,4-tetrahydroquinazoline-7-carboxamide]"
6,< 1,"CC1c2ccc(C(=O)NCc3ccc(F)cc3F)cc2N(Cc2ccccc2F)C(=O)N1C (centres unmarked) [Example 197, N-(2,4-difluorobenzyl)-1-(2-fluorobenzyl)-3,4-dimethyl-2-oxo-1,2,3,4-tetrahydroquinazoline-7-carboxamide]"
7,< 1,"Cc1cc(CN2C(=O)N(C)C(C)c3ccc(C(=O)NCc4c(F)cc(F)cc4F)cc32)ccn1 (centres unmarked) [Example 198, 3,4-dimethyl-1-((2-methylpyridin-4-yl)methyl)-2-oxo-N-(2,4,6-trifluorobenzyl)-1,2,3,4-tetrahydroquinazoline-7-carboxamide]"
8,> 10,"Cc1cc(CN2C(=O)N(C)C(C)c3ccc(C(=O)NCc4c(F)cc(F)cc4F)cc32)on1 (centres unmarked) [Example 199, 3,4-dimethyl-1-((3-methylisoxazol-5-yl)methyl)-2-oxo-N-(2,4,6-triflurobenzyl)-1,2,3,4-tetrahydroquinazoline-7-carboxamide]"
9,> 10,"Cc1cc(CN2C(=O)N(C)C(C)c3ccc(C(=O)NCc4c(F)cc(F)cc4F)cc32)no1 (centres unmarked) [Example 200, 3,4-dimethyl-1-((5-methylisoxazol-3-yl)methyl)-2-oxo-N-(2,4,6-trifluorobenzyl)-1,2,3,4-tetrahydroquinazoline-7-carboxamide]"
10,< 1,"CC1c2ccc(C(=O)NCc3c(F)cc(F)cc3F)cc2N(Cc2ccccc2F)C(=O)N1C (centres unmarked) [Example 201, 1-(2-fluorobenzyl)-3,4-dimethyl-2-oxo-N-(2,4,6-trifluorobenzyl)-1,2,3,4-tetrahydroquinazoline-7-carboxamide]"
11,< 1,"CC1c2ccc(C(=O)NCc3c(F)cc(F)cc3F)cc2N(Cc2c(F)cccc2F)C(=O)N1C (centres unmarked) [Example 205, 1-(2,6-difluorobenzyl)-3,4-dimethyl-2-oxo-N-(2,4,6-trifluorobenzyl)-1,2,3,4-tetrahydroquinazoline-7-carboxamide]"
12,1 to 10,"Cc1cc(CN2C(=O)N(C)C(C)c3ccc(C(=O)NCc4c(F)cc(F)cc4F)cc32)ccn1 (centres unmarked) [Example 207, 3,4-dimethyl-1-((2-methylpyridin-4-yl)methyl)-2-oxo-N-(2,4,6-trifluorobenzyl)-1,2,3,4-tetrahydroquinazoline-7-carboxamide]"
13,< 1,"CC1c2ccc(C(=O)NCc3c(F)cc(F)cc3F)cc2N(Cc2c(F)cc(F)cc2OC(F)(F)F)C(=O)N1C (centres unmarked) [Example 210, 1-(2,4-difluoro-6-(trifluoromethoxy)benzyl)-3,4-dimethyl-2-oxo-N-(2,4,6-trifluorobenzyl)-1,2,3,4-tetrahydroquinazoline-7-carboxamide]"
14,< 1,"CC1c2ccc(C(=O)NCc3c(F)cc(F)cc3F)cc2N(Cc2ccncc2F)C(=O)N1C (centres unmarked) [Example 211, 1-((3-fluoropyridin-4-yl)methyl)-3,4-dimethyl-2-oxo-N-(2,4,6-trifluorobenzyl)-1,2,3,4-tetrahydroquinazoline-7-carboxamide]"
15,1 to 10,"CC1c2ccc(C(=O)NCc3ccccc3)cc2N(Cc2ccccc2)C(=O)N1C (centres unmarked) [Example 214, N,1-dibenzyl-3,4-dimethyl-2-oxo-1,2,3,4-tetrahydroquinazoline-7-carboxamide]"
16,< 1,"Cc1cccc(C)c1CN1C(=O)N(C)C(C)c2ccc(C(=O)NCc3c(F)cc(F)cc3F)cc21 (centres unmarked) [Example 215, 1-(2,6-dimethylbenzyl)-3,4-dimethyl-2-oxo-N-(2,4,6-trifluorobenzyl)-1,2,3,4-tetrahydroquinazoline-7-carboxamide]"

# The next lines start with the compound.
row,Compound,EC50 [µM]
1,"C[C@H]1c2ccc(C(=O)N(CCO)Cc3c(F)cc(F)cc3F)cc2N(Cc2c(F)cccc2Cl)C(=O)N1C [Example 151, (S)-1-(2-Chloro-6-fluorobenzyl)-N-(2-hydroxyethyl)-3,4-dimethyl-2-oxo-N-(2,4,6-trifluorobenzyl)-1,2,3,4-tetrahydroquinazoline-7-carboxamide]",> 10
2,"CC1c2ccc(C(=O)NCc3c(F)cc(F)cc3F)cc2N(Cc2cc(F)cc(F)c2)C(=O)N1C (centres unmarked) [Example 152, 1-(3,5-difluorobenzyl)-3,4-dimethyl-2-oxo-N-(2,4,6-trifluorobenzyl)-1,2,3,4-tetrahydroquinazoline-7-carboxamide]",< 1
3,"COc1cccc(F)c1CN1C(=O)N(C)C(C)c2ccc(C(=O)NCc3c(F)cc(F)cc3F)cc21 (centres unmarked) [Example 155, 1-(2-fluoro-6-methoxybenzyl)-3,4-dimethyl-2-oxo-N-(2,4,6-trifluorobenzyl)-1,2,3,4-tetrahydroquinazoline-7-carboxamide]",1 to 10
4,"CC1c2ccc(C(=O)NCc3c(F)cc(F)cc3F)cc2N(Cc2cc(F)cc(F)c2)C(=O)N1C (centres unmarked) [Example 156, 1-(3,5-difluorobenzyl)-3,4-dimethyl-2-oxo-N-(2,4,6-trifluorobenzyl)-1,2,3,4-tetrahydroquinazoline-7-carboxamide]",< 1
5,"CC1c2ccc(C(=O)NCc3c(F)cc(F)cc3F)cc2N(Cc2cc(F)cc(F)c2)C(=O)N1C (centres unmarked) [Example 157, 1-(3,5-difluorobenzyl)-3,4-dimethyl-2-oxo-N-(2,4,6-trifluorobenzyl)-1,2,3,4-tetrahydroquinazoline-7-carboxamide]",< 1
6,"CC1c2ccc(C(=O)NCc3c(F)cc(F)cc3F)cc2N(Cc2c(F)cccc2Br)C(=O)N1C (centres unmarked) [Example 158, 1-(2-bromo-6-fluorobenzyl)-3,4-dimethyl-2-oxo-N-(2,4,6-trifluorobenzyl)-1,2,3,4-tetrahydroquinazoline-7-carboxamide]",< 1
7,"CC1c2ccc(C(=O)NCc3c(F)cc(F)cc3F)cc2N(Cc2c(F)cccc2Br)C(=O)N1C (centres unmarked) [Example 159, 1-(2-bromo-6-fluorobenzyl)-3,4-dimethyl-2-oxo-N-(2,4,6-trifluorobenzyl)-1,2,3,4-tetrahydroquinazoline-7-carboxamide]",< 1
8,"CC1c2ccc(C(=O)NCc3c(F)cc(F)cc3F)cc2N(Cc2c(O)cccc2F)C(=O)N1C (centres unmarked) [Example 160, 1-(2-fluoro-6-hydroxybenzyl)-3,4-dimethyl-2-oxo-N-(2,4,6-trifluorobenzyl)-1,2,3,4-tetrahydroquinazoline-7-carboxamide]",< 1
9,"Cc1cccc(F)c1CN1C(=O)N(C)C(C)c2ccc(C(=O)NCc3c(F)cc(F)cc3F)cc21 (centres unmarked) [Example 161, 1-(2-fluoro-6-methylbenzyl)-3,4-dimethyl-2-oxo-N-(2,4,6-trifluorobenzyl)-1,2,3,4-tetrahydroquinazoline-7-carboxamide]",1 to 10
10,"Cc1ccc(Cl)c(CN2C(=O)N(C)C(C)c3ccc(C(=O)NCc4c(F)cc(F)cc4F)cc32)c1F (centres unmarked) [Example 163, 1-(6-chloro-2-fluoro-3-methylbenzyl)-3,4-dimethyl-2-oxo-N-(2,4,6-trifluorobenzyl)-1,2,3,4-tetrahydroquinazoline-7-carboxamide]",< 1
11,"Cc1ccc(CN2C(=O)N(C)[C@@H](C)c3ccc(C(=O)NCc4c(F)cc(F)cc4F)cc32)c(F)c1 [Example 170, (S)-1-(2-fluoro-4-methylbenzyl)-3,4-dimethyl-2-oxo-N-(2,4,6-trifluorobenzyl)-1,2,3,4-tetrahydroquinazoline-7-carboxamide]",< 1
12,"C[C@@H]1c2ccc(C(=O)NCc3c(F)cc(F)cc3F)cc2N(Cc2c(O)cccc2F)C(=O)N1C [Example 172, (R)-1-(2-fluoro-6-hydroxybenzyl)-3,4-dimethyl-2-oxo-N-(2,4,6-trifluorobenzyl)-1,2,3,4-tetrahydroquinazoline-7-carboxamide]",1 to 10
13,"CC1c2ccc(C(=O)NCc3c(F)cc(F)cc3F)cc2N(Cc2c(N)cccc2F)C(=O)N1C (centres unmarked) [Example 173, 1-(2-amino-6-fluorobenzyl)-3,4-dimethyl-2-oxo-N-(2,4,6-trifluorobenzyl)-1,2,3,4-tetrahydroquinazoline-7-carboxamide]",< 1
14,"CC1c2ccc(C(=O)NCc3c(F)cc(F)cc3F)cc2N(Cc2ccc(O)cc2F)C(=O)N1C (centres unmarked) [Example 181, 1-(2-fluoro-4-hydroxybenzyl)-3,4-dimethyl-2-oxo-N-(2,4,6-trifluorobenzyl)-1,2,3,4-tetrahydroquinazoline-7-carboxamide]",< 1
15,"C[C@H]1c2ccc(C(=O)NCc3c(F)cc(F)cc3F)cc2N(Cc2c(F)ccc(C(N)=O)c2Cl)C(=O)N1C [Example 186, (S)-1-(3-carbamoyl-2-chloro-6-fluorobenzyl)-3,4-dimethyl-2-oxo-N-(2,4,6-trifluorobenzyl)-1,2,3,4-tetrahydroquinazoline-7-carboxamide]",< 1
16,"CC1NC(=O)N(Cc2c(F)cccc2Cl)c2cc(C(=O)NCc3c(F)cc(F)cc3F)ccc21 (centres unmarked) [Example 189, 1-(2-chloro-6-fluorobenzyl)-4-methyl-2-oxo-N-(2,4,6-trifluorobenzyl)-1,2,3,4-tetrahydroquinazoline-7-carboxamide]",1 to 10
